Key:
[1] = biological target: T1, human EAAT3 (Homo sapiens, UniProt P43005); test: FLIPR Membrane Potential (FMP) assay, antagonist potency at human EAAT3; type: cell-based; settings: HEK-293 cells stably expressing human EAAT3; L-glutamate as agonist at EC80; antagonist applied 15 min before agonist; Kb by Cheng-Prusoff from IC50
T1 construct: expressed in transfected cells
T1 sequence (P43005 1-524): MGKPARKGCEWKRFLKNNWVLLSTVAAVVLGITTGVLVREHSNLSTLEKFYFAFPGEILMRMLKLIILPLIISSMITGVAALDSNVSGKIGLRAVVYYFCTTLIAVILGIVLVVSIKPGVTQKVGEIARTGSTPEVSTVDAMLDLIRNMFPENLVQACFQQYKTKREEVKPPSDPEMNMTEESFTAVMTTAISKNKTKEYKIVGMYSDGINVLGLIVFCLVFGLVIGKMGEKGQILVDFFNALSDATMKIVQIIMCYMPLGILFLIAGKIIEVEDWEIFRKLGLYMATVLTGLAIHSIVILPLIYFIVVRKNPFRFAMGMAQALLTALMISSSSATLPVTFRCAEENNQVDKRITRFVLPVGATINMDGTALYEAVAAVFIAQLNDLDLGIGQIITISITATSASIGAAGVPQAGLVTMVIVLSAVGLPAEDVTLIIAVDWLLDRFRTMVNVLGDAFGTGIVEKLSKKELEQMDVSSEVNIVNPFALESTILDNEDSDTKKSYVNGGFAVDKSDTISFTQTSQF
Procedure: The FLIPR Membrane Potential (FMP) Assay
HEK-293 cells stably expressing human EAAT3 were seeded at 55 000 cells/well in growth medium (DMEM glutamate free (Invitrogen 11960-044), 1% Pen Strep (10 ml/1 GIBCO BRL N°15140-023), 10% FCS non dialysed heat inactivated, 5 mg/l puromycin) in poly-D-lysine treated 96-well black microtiter plates with clear-bottom. After 24 h, the growth medium was removed and 100 μl/well of Krebs buffer (140 mM NaCl, 4.7 mM KCl, 2.5 mM CaCl2, 1.2 mM MgCl2, 11 mM HEPES, 10 mM D-glucose, pH=7.4) added. The cells were then loaded by adding 100 μl/well FMP assay dye (FLIPR Membrane Potential assay reagent, Molecular Devices). The 96-well plates were then incubated at 37° C. for 1 h. The depolarization of the cells will cause more dye to enter in the cells, where it will bind to intracellular proteins and lipids and cause an increase in the fluorescence signal. Antagonist potency at human EAAT3 was determined by using L-glutamate as agonist at a concentration which gives 80% of the maximum response. The antagonists were applied 15 min before the application of the agonist L-glutamate. The assays were performed at room temperature and measurements done by using a Fluorometric Imaging Plate Reader (FLIPR, Molecular Devices) and filter #2. Responses were measured as peak increase in fluorescence minus basal (i.e. fluorescence without addition of L-glutamate). Kb was determined using the Cheng-Prusoff equation Kb=IC50/[1+(A/EC50)], where IC50 is the concentration of the antagonist producing 50% inhibition, A is the concentration of the agonist against which the IC50 is being determined (at EC80) and EC50 is the concentration of the agonist producing 50% […].

| Compound | melting point [°C] | Kb [1] [µM] |
| --- | --- | --- |
| CC(C)(C)NC(=O)c1cc(-c2ccc(Cl)cc2)cc(-n2ccnc2CO)c1 [Example 29, N-tert-Butyl-3-(4-chlorophenyl)-5-[2-(hydroxymethyl)-imidazol-1-yl]-benzamide] | 114 | 0.15 |
| Cc1nccn1-c1cc(C(=O)NC(C)(C)C)cc(-c2ccc(F)cc2)c1 [Example 12, N-tert-Butyl-3-(4-fluorophenyl)-5-(2-methylimidazol-1-yl)-benzamide] | 208 | 0.13 |
| CC(C)(NC(=O)c1cc(-c2ccc(Cl)cc2)cc(-n2ccnc2C2CC2)c1)C1CC1 [Example 13, 3-(4-Chlorophenyl)-5-(2-cyclopropylimidazol-1-yl)-N-(2-cyclopropyl-propan-2-yl)-benzamide] | 90 | 0.31 |
| CCc1nccn1-c1cc(C(=O)NC(C)(C)C)cc(-c2ccc(F)cc2)c1 [Example 10, N-tert-Butyl-3-(2-ethylimidazol-1-yl)-5-(4-fluorophenyl)-benzamide] | 238 | 0.11 |
| CCC(C)(C)NC(=O)c1cc(-c2ccc(Cl)cc2)cc(-n2ccnc2C2CC2)c1 [Example 37, 3-(4-Chlorophenyl)-5-(2-cyclopropylimidazol-1-yl)-N-(2-methylbutan-2-yl)-benzamide] | 85 | 0.17 |
| CC(C)(NC(=O)c1cc(-c2ccc(Cl)cc2)cc(-n2ccnc2C2CC2)c1)C(F)(F)F [Example 15, 3-(4-Chlorophenyl)-5-(2-cyclopropylimidazol-1-yl)-N-(1,1,1-trifluoro-2-methylpropan-2-yl)-benzamide] | 101.5 | 0.15 |
| CC(C)(C)NC(=O)c1cc(-c2ccc(Cl)cc2)cc(-n2ccnc2C(C)(C)O)c1 [Example 40, N-tert-Butyl-3-(4-chlorophenyl)-5-[2-(2-hydroxypropan-2-yl)-imidazol-1-yl]-benzamide] | 78 | 0.07 |
| CCc1nccn1-c1cc(C(=O)NC(C)(C)C2CC2)cc(-c2ccc(F)cc2)c1 [Example 18, N-(2-Cyclopropylpropan-2-yl)-3-(2-ethylimidazol-1-yl)-5-(4-fluorophenyl)-benzamide] | 70 | 0.17 |
| CC1(NC(=O)c2cc(-c3ccc(Cl)cc3)cc(-n3ccnc3C3CC3)c2)CCS(=O)(=O)C1 (racemic) [Example 39, (RS)-3-(4-chlorophenyl)-5-(2-cyclopropylimidazol-1-yl)-N-(3-methyl-1,1-dioxothiolan-3-yl)-benzamide] | 115 | 0.18 |
| CC(C)(C)NC(=O)c1cc(-c2ccc(F)cc2)cc(-n2ccnc2C(C)(C)O)c1 [Example 34, N-tert-Butyl-3-(4-fluorophenyl)-5-[2-(2-hydroxypropan-2-yl)-imidazol-1-yl]-benzamide] | 183 | 0.1 |
| CCC(C)(C)NC(=O)c1cc(-c2ccc(Cl)cc2)cc(-n2ccnc2CO)c1 [Example 30, 3-(4-Chlorophenyl)-5-[2-(hydroxymethyl)-imidazol-1-yl]-N-(2-methylbutan-2-yl)-benzamide] | 76 | 0.16 |
| Cc1nccn1-c1cc(C(=O)NC(C)(C)C)cc(-c2ccc(Cl)cc2)c1 [Example 3, N-tert-Butyl-3-(4-chlorophenyl)-5-(2-methylimidazol-1-yl)-benzamide] | 220 | 0.19 |
| CC(C)(C)NC(=O)c1cc(-c2ccc(C(F)(F)F)cc2)cc(-n2ccnc2C(C)(C)O)c1 [Example 35, N-tert-Butyl-3-[2-(2-hydroxypropan-2-yl)-imidazol-1-yl]-5-[4-(trifluoromethyl)-phenyl]-benzamide] | 173.5 | 0.21 |
| CC(C)c1nccn1-c1cc(C(=O)NC(C)(C)C)cc(-c2ccc(F)cc2)c1 [Example 6, N-tert-Butyl-3-(4-fluorophenyl)-5-(2-propan-2-ylimidazol-1-yl)-benzamide] | 224 | 0.076 |

Source: patent publication US10029989B2, “Imidazole derivatives” (Hoffmann-La Roche Inc., priority 2015, dated 2018)
